Results from BigSolDB 2.1.

O=C(O)c1ccc(-c2ccc(C(=O)O)o2)o1
solubility (mole fraction)
Conditions	in DMAc	in DMSO	in acetic acid	in acetonitrile	in isopropanol	in methanol	in n-pentanol	in water
298.15 K	0.0166	0.00768	8.11e-06	1.73e-06	0.0001	0.000331	0.000146	9.64e-07
303.15 K	0.0208	0.00984	1.13e-05	2.2e-06	0.000106	0.000393	0.000154	1.31e-06
313.15 K	0.0283	0.017	2.35e-05	3.47e-06	0.000154	0.000464	–	1.97e-06
323.15 K	0.0499	0.0282	3.38e-05	5.31e-06	0.000223	0.000574	0.000148	2.55e-06
333.15 K	0.0555	0.0412	6.79e-05	7.91e-06	0.000284	0.000702	0.000214	3.75e-06
343.15 K	0.0807	0.0728	0.000112	1.15e-05	0.000592	0.00109	0.000412	4.84e-06
353.15 K	–	–	0.000214	1.58e-05	0.00116	–	0.000757	7.43e-06
363.15 K	–	–	–	2.12e-05	0.0014	–	0.00144	9.09e-06
